According to US20260262643A1, “HERBICIDAL BENZOXAZINES” (FMC CORPORATION, priority 2022, published 2026):

Experiments:
wheat [1] = assay: Test C postemergence; type: in vivo, Triticum aestivum; details: 10 days
In short: (§1)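 Seeds in loam–sand blend received preemergence directed soil spray of test chemicals in non-phytotoxic solvent with surfactant; postemergence treatment was applied at one- to two-leaf stage (2–10 cm). After 10 days in greenhouse, injury rated visually versus untreated controls, 0 (no effect) to 100 (complete control).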

blackgrass [2] = assay: Test C preemergence; type: in vivo, Alopecurus myosuroides; details: 0 to 100 scale (0 no effect, 100 complete control); for Plant response rating, Blackgrass: Preemergence, 500 g ai/ha, visual rating after 10 days; for Blackgrass plant response rating: Test C, preemergence, 125 g ai/ha
In short: as §1

oat, wild [3] = assay: Test C postemergence; type: in vivo, Avena fatua; details: 10 days
In short: as §1

ryegrass, Italian [4] = assay: Test C preemergence; type: in vivo, Lolium multiflorum; details: 0 to 100 scale (0 no effect, 100 complete control); for Plant response rating, Ryegrass, Italian: Preemergence, 500 g ai/ha, visual rating after 10 days; for Ryegrass, Italian plant response rating: Test C, preemergence, 125 g ai/ha
In short: as §1

soybean [5] = assay: Test C preemergence; type: in vivo, Glycine max; details: 0 to 100 scale (0 no effect, 100 complete control); for Plant response rating, Soybean: Preemergence, 500 g ai/ha, visual rating after 10 days; for Soybean plant response rating: Test C, preemergence, 125 g ai/ha
In short: as §1

ryegrass, Italian [6] = assay: Test C postemergence; type: in vivo, Lolium multiflorum; details: 10 days
In short: as §1

kochia [7] = assay: Test C postemergence; type: in vivo, Bassia scoparia; details: 10 days
In short: as §1

horseweed = assay: Test C postemergence; type: in vivo, Erigeron canadensis; details: 10 days
In short: as §1

wheat [8] = assay: Test C preemergence; type: in vivo, Triticum aestivum; details: 0 to 100 scale (0 no effect, 100 complete control); for Plant response rating, Wheat: Preemergence, 500 g ai/ha, visual rating after 10 days; for Wheat plant response rating: Test C, preemergence, 125 g ai/ha
In short: as §1

barnyardgrass [9] = assay: Test C preemergence; type: in vivo, Echinochloa crusgalli; details: 0 to 100 scale (0 no effect, 100 complete control); for Plant response rating, Barnyardgrass: Preemergence, 500 g ai/ha, visual rating after 10 days; for Barnyardgrass plant response rating: Test C, preemergence, 125 g ai/ha
In short: as §1

ragweed [10] = assay: Test C preemergence; type: in vivo, Ambrosia artemisiifolia; details: 0 to 100 scale (0 no effect, 100 complete control); for Plant response rating, Ragweed: Preemergence, 500 g ai/ha, visual rating after 10 days; for Ragweed plant response rating: Test C, preemergence, 125 g ai/ha
In short: as §1

blackgrass [11] = assay: Test C postemergence; type: in vivo, Alopecurus myosuroides; details: 10 days
In short: as §1

green foxtail [12] = assay: Test C postemergence; type: in vivo, Setaria viridis; details: 10 days
In short: as §1

oat, wild [13] = assay: Test C preemergence; type: in vivo, Avena fatua; details: 0 to 100 scale (0 no effect, 100 complete control); for Plant response rating, Oat, Wild: Preemergence, 500 g ai/ha, visual rating after 10 days; for Oat, Wild plant response rating: Test C, preemergence, 125 g ai/ha
In short: as §1

barnyardgrass [14] = assay: Test C postemergence; type: in vivo, Echinochloa crusgalli; details: 10 days
In short: as §1

pigweed, palmer [15] = assay: Test C postemergence; type: in vivo, Amaranthus palmeri; details: 10 days
In short: as §1

ducksalad = assay: Test D flooded paddy test; type: in vivo, Heteranthera limosa; details: 250 g ai/ha, applied to paddy water, visual rating after 13 to 14 days, scale 0 to 100 (0 no effect, 100 complete control)
In short: (§2)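 Rating scale 0–100 (0 no effect, 100 complete control), visual, versus controls. Readout at 13–14 days after in-water application to 2-leaf plants in pots flooded 3 cm deep.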

sedge, umbrella = assay: Test D flooded paddy test; type: in vivo, Cyperus difformis; details: 250 g ai/ha, applied to paddy water, visual rating after 13 to 14 days, scale 0 to 100 (0 no effect, 100 complete control)
In short: as §2

corn [16] = assay: Test C postemergence; type: in vivo, Zea mays; details: 10 days
In short: as §1

galium = assay: Test C postemergence; type: in vivo, Galium aparine; details: 10 days
In short: as §1

barnyardgrass [17] = assay: Test D flooded paddy test; type: in vivo, Echinochloa crus-galli; details: 250 g ai/ha, applied to paddy water, visual rating after 13 to 14 days, scale 0 to 100 (0 no effect, 100 complete control)
In short: as §2

corn [18] = assay: Test C preemergence; type: in vivo, Zea mays; details: 0 to 100 scale (0 no effect, 100 complete control); for Plant response rating, Corn: Preemergence, 500 g ai/ha, visual rating after 10 days; for Corn plant response rating: Test C, preemergence, 125 g ai/ha
In short: as §1

soybean [19] = assay: Test C postemergence; type: in vivo, Glycine max; details: 10 days
In short: as §1

green foxtail [20] = assay: Test C preemergence; type: in vivo, Setaria viridis; details: 0 to 100 scale (0 no effect, 100 complete control); for Plant response rating, Foxtail, Green: Preemergence, 500 g ai/ha, visual rating after 10 days; for Foxtail, Green plant response rating: Test C, preemergence, 125 g ai/ha
In short: as §1

ragweed [21] = assay: Test C postemergence; type: in vivo, Ambrosia artemisiifolia; details: 10 days
In short: as §1

kochia [22] = assay: Test C preemergence; type: in vivo, Bassia scoparia; details: 0 to 100 scale (0 no effect, 100 complete control); for Plant response rating, Kochia: Preemergence, 500 g ai/ha, visual rating after 10 days; for Kochia plant response rating: Test C, preemergence, 125 g ai/ha
In short: as §1

rice = assay: Test D flooded paddy test; type: in vivo, Oryza sativa; details: 250 g ai/ha, applied to paddy water, visual rating after 13 to 14 days, scale 0 to 100 (0 no effect, 100 complete control)
In short: as §2

pigweed, palmer [23] = assay: Test C preemergence; type: in vivo, Amaranthus palmeri; details: 0 to 100 scale (0 no effect, 100 complete control); for Plant response rating, Pigweed, Palmer: Preemergence, 500 g ai/ha, visual rating after 10 days; for Pigweed, Palmer plant response rating: Test C, preemergence, 125 g ai/ha
In short: as §1

[24] = 125 g ai/ha, postemergence, 0 to 100 scale, 0 no effect, 100 complete control
[25] = Postemergence, 500 g ai/ha, visual 0 to 100 scale (0 no effect, 100 complete control)

SMILES: COc1c(C)cc(-n2cnc(C(C)C)n2)cc1C(=O)N1C[C@H](C)Oc2c(Cl)cccc21 [Compound 260]
- Plant response rating, Wheat (wheat [1]; [24]): 20
- Plant response rating, Wheat (wheat [1]; [25]): 20
- Plant response rating, Blackgrass (blackgrass [2]): 80
- Blackgrass plant response rating (blackgrass [2]): 60
- Plant response rating, Oat, Wild (oat, wild [3]; [24]): 30
- Plant response rating, Oat, Wild (oat, wild [3]; [25]): 50
- Plant response rating, Ryegrass, Italian (ryegrass, Italian [4]): 90
- Ryegrass, Italian plant response rating (ryegrass, Italian [4]): 80
- Plant response rating, Soybean (soybean [5]): 40
- Soybean plant response rating (soybean [5]): 10
- Plant response rating, Ryegrass, Italian (ryegrass, Italian [6]; [24]): 60
- Plant response rating, Ryegrass, Italian (ryegrass, Italian [6]; [25]): 60
- Plant response rating, Kochia (kochia [7]; [24]): 60
- Plant response rating, Kochia (kochia [7]; [25]): 90
- Plant response rating, Horseweed (horseweed; [24]): 0
- Plant response rating, Horseweed (horseweed; [25]): 10
- Plant response rating, Wheat (wheat [8]): 20
- Wheat plant response rating (wheat [8]): 20
- Plant response rating, Barnyardgrass (barnyardgrass [9]): 90
- Barnyardgrass plant response rating (barnyardgrass [9]): 70
- Plant response rating, Ragweed (ragweed [10]): 40
- Ragweed plant response rating (ragweed [10]): 0
- Plant response rating, Blackgrass (blackgrass [11]; [24]): 20
- Plant response rating, Blackgrass (blackgrass [11]; [25]): 30
- Plant response rating, Foxtail, Green (green foxtail [12]; [24]): 10
- Plant response rating, Foxtail, Green (green foxtail [12]; [25]): 60
- Plant response rating, Oat, Wild (oat, wild [13]): 90
- Oat, Wild plant response rating (oat, wild [13]): 30
- Plant response rating, Barnyardgrass (barnyardgrass [14]; [24]): 10
- Plant response rating, Barnyardgrass (barnyardgrass [14]; [25]): 50
- Plant response rating, Pigweed, Palmer (pigweed, palmer [15]; [24]): 10
- Plant response rating, Pigweed, Palmer (pigweed, palmer [15]; [25]): 50
- Plant response rating, Ducksalad (Flood) (ducksalad): 0
- Plant response rating, Sedge, Umbrella (Flood) (sedge, umbrella): 0
- Plant response rating, Corn (corn [16]; [24]): 10
- Plant response rating, Corn (corn [16]; [25]): 60
- Plant response rating, Galium (galium; [24]): 90
- Plant response rating, Galium (galium; [25]): 100
- Plant response rating, Barnyardgrass (Flood) (barnyardgrass [17]): 0
- Plant response rating, Corn (corn [18]): 10
- Corn plant response rating (corn [18]): 0
- Plant response rating, Soybean (soybean [19]; [24]): 100
- Plant response rating, Soybean (soybean [19]; [25]): 100
- Plant response rating, Foxtail, Green (green foxtail [20]): 100
- Foxtail, Green plant response rating (green foxtail [20]): 100
- Plant response rating, Ragweed (ragweed [21]; [24]): 0
- Plant response rating, Ragweed (ragweed [21]; [25]): 0
- Plant response rating, Kochia (kochia [22]): 80
- Kochia plant response rating (kochia [22]): 60
- Plant response rating, Rice (Flood) (rice): 0
- Plant response rating, Pigweed, Palmer (pigweed, palmer [23]): 100
- Pigweed, Palmer plant response rating (pigweed, palmer [23]): 40

SMILES: CCc1ncn(-c2ccc(C)c(C(=O)N3CC(C(F)(F)F)Oc4c(Cl)cccc43)c2)n1 (single isomer, unassigned) [Compound 218]
- Plant response rating, Wheat (wheat [1]; [24]): 60
- Plant response rating, Wheat (wheat [1]; [25]): 90
- Plant response rating, Blackgrass (blackgrass [2]): 80
- Blackgrass plant response rating (blackgrass [2]): 40
- Plant response rating, Oat, Wild (oat, wild [3]; [24]): 30
- Plant response rating, Oat, Wild (oat, wild [3]; [25]): 80
- Plant response rating, Ryegrass, Italian (ryegrass, Italian [4]): 90
- Ryegrass, Italian plant response rating (ryegrass, Italian [4]): 90
- Plant response rating, Soybean (soybean [5]): 100
- Soybean plant response rating (soybean [5]): 90
- Plant response rating, Ryegrass, Italian (ryegrass, Italian [6]; [24]): 80
- Plant response rating, Ryegrass, Italian (ryegrass, Italian [6]; [25]): 90
- Plant response rating, Kochia (kochia [7]; [24]): 90
- Plant response rating, Kochia (kochia [7]; [25]): 100
- Plant response rating, Horseweed (horseweed; [24]): 0
- Plant response rating, Horseweed (horseweed; [25]): 70
- Plant response rating, Wheat (wheat [8]): 80
- Wheat plant response rating (wheat [8]): 30
- Plant response rating, Barnyardgrass (barnyardgrass [9]): 100
- Barnyardgrass plant response rating (barnyardgrass [9]): 100
- Plant response rating, Ragweed (ragweed [10]): 80
- Ragweed plant response rating (ragweed [10]): 20
- Plant response rating, Blackgrass (blackgrass [11]; [24]): 90
- Plant response rating, Blackgrass (blackgrass [11]; [25]): 100
- Plant response rating, Foxtail, Green (green foxtail [12]; [24]): 90
- Plant response rating, Foxtail, Green (green foxtail [12]; [25]): 90
- Plant response rating, Oat, Wild (oat, wild [13]): 90
- Oat, Wild plant response rating (oat, wild [13]): 60
- Plant response rating, Barnyardgrass (barnyardgrass [14]; [24]): 100
- Plant response rating, Barnyardgrass (barnyardgrass [14]; [25]): 100
- Plant response rating, Pigweed, Palmer (pigweed, palmer [15]; [24]): 90
- Plant response rating, Pigweed, Palmer (pigweed, palmer [15]; [25]): 90
- Plant response rating, Ducksalad (Flood) (ducksalad): 60
- Plant response rating, Sedge, Umbrella (Flood) (sedge, umbrella): 80
- Plant response rating, Corn (corn [16]; [24]): 70
- Plant response rating, Corn (corn [16]; [25]): 70
- Plant response rating, Galium (galium; [24]): 100
- Plant response rating, Galium (galium; [25]): 100
- Plant response rating, Barnyardgrass (Flood) (barnyardgrass [17]): 0
- Plant response rating, Corn (corn [18]): 60
- Corn plant response rating (corn [18]): 20
- Plant response rating, Soybean (soybean [19]; [24]): 100
- Plant response rating, Soybean (soybean [19]; [25]): 100
- Plant response rating, Foxtail, Green (green foxtail [20]): 100
- Foxtail, Green plant response rating (green foxtail [20]): 100
- Plant response rating, Ragweed (ragweed [21]; [24]): 80
- Plant response rating, Ragweed (ragweed [21]; [25]): 80
- Plant response rating, Kochia (kochia [22]): 100
- Kochia plant response rating (kochia [22]): 90
- Plant response rating, Rice (Flood) (rice): 0
- Plant response rating, Pigweed, Palmer (pigweed, palmer [23]): 100
- Pigweed, Palmer plant response rating (pigweed, palmer [23]): 100
